Molecules are shown by their SMILES. “Also recorded” adds a separate entry of the source.

The record followed here is patent publication US5569649A, “Anti-inflammatory treatment method” (Phytopharm (NA) N.V., priority 1994, dated 1996).

The nature of series [1]: Hypoxoside metabolites from urine after oral hypoxoside (HPLC). The format is in vivo, human. To be noted: urine over 24 h after oral hypoxoside 1 g. As to the method: Example 7 describes the characterization of the rooperol metabolites which were excreted in the urine of the same subject. Urine from the same volunteer as above was collected over 24 hours following administration of the hypoxoside. The collected sample was filtered and purified by passage through a column bed of C18-bonded silica.
The urine from the volunteer in Example 6 was collected over the first 24 hours following administration of hypoxoside and then processed as follows. C18-bonded silica sorbent material (200 g, 40 μm) was pre-treated with methanol and water via a column bed. Filtered urine (5 l) was passed through the sorbent bed, followed by elution in sequence with water (400 ml), aqueous methanol (10% v/v, 400 ml), aqueous methanol (30% v/v, 800 ml) and finally with methanol (400 ml) and water (400 ml). The aqueous methanol fraction (30% v/v, 800 ml) was diluted with water (1600 ml) and again passed through the sorbent bed which was then eluted with water (400 ml) and finally with methanol (400 ml). The final methanol solution was evaporated under vacuum at 50° C. to an aqueous residue which was lyophilized to yield 1 g of a mixture of hypoxoside metabolites and endogenous urine components.
A suitable volume of filtered aqueous solution of this residue (10 mg/ml) was injected onto the in-line pre-column of the analytical HPLC system (Example 5) such that 3 fractions designated A, B, and C having the same retention times as the corresponding peaks observed in serum (Example 6) were collected at the column outlet (see FIG. 4). These fractions were rendered free of mobile phase buffer salts by standard reverse phase sorption technique and lyophilized to dryness.

Series [2] is described as follows: Pharmacokinetics of hypoxoside metabolites, multiple-dose study. The format is in vivo, human. The following applies: 800 mg H. rooperii methanol-extract 3 times daily for 9 days. As to the method:
In a random, multiple-dose study, 6 subjects received 800 mg of H. rooperii methanol-extract 3 times daily for 9 days, and blood samples were collected daily for 12 days (with the exception that no samples were collected on day 11).

The nature of series [3]: Rooperol metabolites in serum after oral hypoxoside (HPLC). It is filed as in vivo, human. The following applies: for presence in serum (HPLC peak): 2 h after oral hypoxoside 1 g, one human volunteer. How it is done:
The analytical column (4.6×250 mm) was packed with end-capped C8-bonded silica of 5 μm regular particle size (Whatman, Maidstone, England), while a guard column (2.1×75 mm) was packed with pellicular C18-bonded silica (Whatman). An in-line extraction pre-column (2.1×30 mm) was packed with preparative grade C18-bonded silica, 40 μm particle size (Analytichem International, Harbor City, Calif.).
Operating conditions involved a linear solvent gradient programmed at a flow rate of 1.5 ml/min starting with mobile phase A (0.05M KH2 PO4) to which 10% mobile phase B (acetonitrile-isopropanol, 80:20 v/v) was added after 0.01 min. This mixture was maintained for 1 minute after which a linear gradient of mobile phases A and B was begun, ending at 70% B after 16 minutes. The column temperature was maintained at 50° C.
The in-line extraction pre-column was loaded with sample (dissolved in 50 μl ethanol or in up to 200 μl of mobile phase A in the case of purified compounds; or a 200 μl aliquot of serum or urine from a human subject) and made up to 500 μl with an aqueous solution containing 8M guanidinium chloride and 1M ammonium sulfate. Blood samples were first converted to sera prior to analysis. The extraction column was flushed before and after sample introduction with 500 μl of aqueous 0.5M ammonium sulfate. The solutes trapped on the in-line extraction column were then eluted onto the analytical column by mobile phase after column switching and initiation of the analysis.
The detector was programmed to monitor the eluant at 260 nm and also to record absorption spectra from 200-400 nm.

Series [4] relates to IL-1β production by lipopolysaccharide-stimulated human peripheral blood mononuclear cells. Put plainly: Inhibition of IL-1β production by LPS-stimulated human PBMCs (ELISA). It is filed as cell-based. The following applies: for inhibition of IL-1β production, in words: activated human mononuclear cells, 1-10 μM rooperol. As to the method:
(§1) In the study detailed in Example 4, cultured PBMCs enriched in monocytes were stimulated with lipopolysaccharide (20 μg/ml) in the presence and absence of rooperol at concentrations of 1-10 μM. After overnight incubation, the cells were collected and lysed, and the concentrations of TNF-α and IL-1β were measured by ELISA.
(§2) Peripheral blood mononuclear cells (PBMs) from normal human donors were separated on a Ficoll-Paque gradient and enriched in monocytes by adherence. PBMs were cultured in 12-well plates (2×10^6 cells/ml/well) in RPMI 1640 supplemented with 5% fetal calf serum.
(§3) Cultures were stimulated with lipopolysaccharide (LPS, 20 ug/ml), with or without rooperol at concentrations of 1, 2, 5, and 10 μM, and incubated overnight in 5% CO2. The cells were pelleted, resuspended in RPMI medium, and freeze-thawed five times to produce lysates. All samples were stored at -20° C. until cytokine concentrations were determined by commercial ELISA assays.
A general note: An ELISA detects its analyte on a solid surface through an enzyme-linked reagent.

A short description of series [5]: Phase I dosing: hypoxoside and metabolites in serum. The following applies: oral hypoxoside preparation 1.6, 2.4 and 3.2 g, 20 human subjects. It is filed as in vivo. An excerpt: In a Phase I dose-ranging and toxicity study, 20 human subjects were given oral doses of a hypoxoside preparation obtained by the methanol extraction procedure described in Example 1. The dosages were 1.6, 2.4, and 3.2 g. Following administration of the hypoxoside preparation, blood samples were collected periodically from the subjects for measurement of hypoxoside and its metabolites. The samples were converted to sera and processed as described in Example 5. The only hypoxoside/rooperol compounds detected were the sulfate and glucuronide metabolites of rooperol noted in Examples 6 and 7.

Series [6] can be described thus: Anti-inflammatory activity (general statement).
Series [7] in a line: Susceptibility to air oxidation. It is filed as physicochemical.
Series [8] is described as follows: HPLC of fecal specimen after oral hypoxoside. It is filed as in vivo, human. The following applies: after oral hypoxoside 1 g. As to the method:
In addition, a fecal specimen was also obtained from the subject and, following extraction, was analyzed by HPLC as above (FIG. 5).

For series [9], the system named is TNF-α production by lipopolysaccharide-stimulated human peripheral blood mononuclear cells. Put plainly: Inhibition of TNF-α production by LPS-stimulated human PBMCs (ELISA). The format is cell-based. To be noted: for inhibition of TNF-α production, in words: LPS-stimulated human PBMCs, 1-10 μM rooperol. As to the method:
as §1, §2, §3

As for `O=C(O)[C@H]1O[C@@H](Oc2ccc(C#CC/C=C/c3ccc(O[C@@H]4O[C@H](C(=O)O)[C@@H](O)[C@H](O)[C@H]4O)c(O)c3)cc2O)[C@H](O)[C@@H](O)[C@@H]1O` [A, rooperol 4,4'-diglucuronide], in series [1], the “presence in urine (HPLC peak)” value was “found in the urine sample”. The “relative abundance of metabolite in serum” value in [2] is on record as “minor metabolites”. In addition, the “presence in serum (HPLC peak)” value in series [3] is on record as “appearance of three new peaks”.

Consider `Oc1ccc(C#CC/C=C/c2ccc(O)c(O)c2)cc1O` [rooperol], for which, in series [1], the “presence in urine (HPLC peak)” value is given as “None of the other urinary peaks corresponded to rooperol or hypoxoside”. Moreover, the IC50 in series [4] (Homo sapiens, PBMC, LPS 20 μg/ml, overnight incubation, FIG. 2B, read-out: half-maximal inhibition of IL-1β production) lay within 1 to 2 µM; in series [9] (Homo sapiens, PBMC, LPS 20 μg/ml, overnight incubation, FIG. 2A, read-out: half-maximal inhibition of TNF-α production), 1 to 2 µM. Also, in series [4], the “inhibition of IL-1β production, in words” value is recorded as “dose-dependent inhibition; also recorded: potent inhibitor”. Further, the detection in serum result in [5] is listed as “Neither hypoxoside nor rooperol could be detected”. The anti-inflammatory activity result in [6] is reported as “significant anti-inflammatory activity”. Also, the “susceptibility to air oxidation” value in [7] is “susceptible to air oxidation”. In addition, the “presence in fecal specimen (HPLC peak)” value in series [8] is “Only one major peak was observed, with a retention time corresponding to that of rooperol”. Besides, in [9] (10 μM rooperol, LPS 20 μg/ml), the “inhibition of TNF-α production” value is listed as “nearly complete inhibition”. Besides, the “inhibition of TNF-α production, in words” value in series [9] was “dose-dependent inhibition; also recorded: potent inhibitor”. Also, in series [3], the “presence in serum (HPLC peak)” value is recorded as “None of these peaks corresponded to rooperol or hypoxoside”.

In the case of `O=S(=O)(O)Oc1ccc(C#CC/C=C/c2ccc(OS(=O)(=O)O)c(O)c2)cc1O` [C, rooperol 4,4'-disulfate], in series [1], the “presence in urine (HPLC peak)” value is “found in the urine sample”. Further, in series [2], the “relative abundance of metabolite in serum” value is listed as “minor metabolites”. Besides, the “presence in serum (HPLC peak)” value in [3] is recorded as “appearance of three new peaks”.

On to `OC[C@H]1O[C@@H](Oc2ccc(C#CC/C=C/c3ccc(O[C@@H]4O[C@H](CO)[C@@H](O)[C@H](O)[C@H]4O)c(O)c3)cc2O)[C@H](O)[C@@H](O)[C@@H]1O` [hypoxoside], for which the “presence in urine (HPLC peak)” value in series [1] is on record as “None of the other urinary peaks corresponded to rooperol or hypoxoside”. For the same molecule, in [4], the “inhibition of IL-1β production, in words” value was “inactive”. For the same molecule, the detection in serum entry in series [5] is “Neither hypoxoside nor rooperol could be detected”. In series [8], the “presence in fecal specimen (HPLC peak)” value is on record as “No peaks were detectable”. Further, the “inhibition of TNF-α production, in words” value in series [9] is “inactive”. Besides, the “presence in serum (HPLC peak)” value in [3] is given as “None of these peaks corresponded to rooperol or hypoxoside”. Also, in [3] (oral hypoxoside, humans), the “toxicity of metabolites, in words” value was “metabolized to non-toxic derivatives” and the “uptake into the bloodstream” value is given as “taken up rapidly into the bloodstream”.
